Experimental data taken from ChEMBL document CHEMBL1145933, “Novel sst(4)-selective somatostatin (SRIF) agonists. 1. Lead identification using a betide scan” (J Med Chem, 2003).
Where a SMILES comes first, the peptide text is derived from it. Bridges are numbered along the chain shown (N, C = ends). [ ]: non-standard residue; d: D form.

What was measured:
[1] = biological target: Somatostatin receptor type 2 (Homo sapiens, UniProt P30874); test: Binding affinity towards human Somatostatin receptor type 2 using 125I-[Leu,DTrp,Tyr]SRIF-28 as radioligand
[2] = biological target: Somatostatin receptor type 5 (Homo sapiens, UniProt P35346); test: Binding affinity towards human Somatostatin receptor type 5 using 125I-[Leu,DTrp,Tyr]SRIF-28 as radioligand
[3] = biological target: Somatostatin receptor type 1 (Homo sapiens, UniProt P30872); test: Binding affinity towards human Somatostatin receptor type 1 using 125I-[Leu,DTrp,Tyr]SRIF-28 as radioligand
[4] = biological target: Somatostatin receptor type 4 (Homo sapiens, UniProt P31391); test: Binding affinity towards human Somatostatin receptor type 4 using 125I-[Leu,DTrp,Tyr]SRIF-28 as radioligand
[5] = biological target: Somatostatin receptor type 3 (Homo sapiens, UniProt P32745); test: Binding affinity towards human Somatostatin receptor type 3 using 125I-[Leu,DTrp,Tyr]SRIF-28 as radioligand
Sequence of Somatostatin receptor type 3 (P32745 whole entry): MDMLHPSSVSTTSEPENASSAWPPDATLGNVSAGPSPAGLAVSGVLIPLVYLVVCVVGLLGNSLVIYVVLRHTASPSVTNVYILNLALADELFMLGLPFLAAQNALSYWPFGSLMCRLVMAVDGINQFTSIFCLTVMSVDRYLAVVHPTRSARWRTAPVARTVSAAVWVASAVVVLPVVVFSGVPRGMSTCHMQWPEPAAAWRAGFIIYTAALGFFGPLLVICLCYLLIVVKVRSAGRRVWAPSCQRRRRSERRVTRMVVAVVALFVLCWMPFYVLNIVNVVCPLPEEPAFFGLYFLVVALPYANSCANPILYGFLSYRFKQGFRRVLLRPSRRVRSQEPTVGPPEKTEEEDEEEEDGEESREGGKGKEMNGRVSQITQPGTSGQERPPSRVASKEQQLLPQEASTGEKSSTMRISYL

Sequence of Somatostatin receptor type 1 (P30872 whole entry): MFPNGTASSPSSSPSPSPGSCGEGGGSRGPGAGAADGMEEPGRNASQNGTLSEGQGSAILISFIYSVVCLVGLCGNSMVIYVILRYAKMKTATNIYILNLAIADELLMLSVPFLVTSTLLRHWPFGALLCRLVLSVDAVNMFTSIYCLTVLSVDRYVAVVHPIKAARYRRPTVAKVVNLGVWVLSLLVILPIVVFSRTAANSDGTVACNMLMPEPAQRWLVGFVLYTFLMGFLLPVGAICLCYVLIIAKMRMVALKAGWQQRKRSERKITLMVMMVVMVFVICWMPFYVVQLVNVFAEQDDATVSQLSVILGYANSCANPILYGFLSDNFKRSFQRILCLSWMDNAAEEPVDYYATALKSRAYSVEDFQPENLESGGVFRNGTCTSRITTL
Sequence of Somatostatin receptor type 2 (P30874 whole entry): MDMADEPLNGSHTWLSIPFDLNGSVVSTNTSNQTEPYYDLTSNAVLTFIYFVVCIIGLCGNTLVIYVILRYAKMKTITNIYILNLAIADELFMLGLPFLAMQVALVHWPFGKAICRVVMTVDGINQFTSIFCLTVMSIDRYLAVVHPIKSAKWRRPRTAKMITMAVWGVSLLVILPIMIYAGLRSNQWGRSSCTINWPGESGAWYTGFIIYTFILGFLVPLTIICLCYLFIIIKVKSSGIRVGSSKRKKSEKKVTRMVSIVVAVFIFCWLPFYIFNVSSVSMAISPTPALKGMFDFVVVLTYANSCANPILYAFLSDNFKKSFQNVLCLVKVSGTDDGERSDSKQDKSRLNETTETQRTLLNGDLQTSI
Sequence of Somatostatin receptor type 4 (P31391 whole entry): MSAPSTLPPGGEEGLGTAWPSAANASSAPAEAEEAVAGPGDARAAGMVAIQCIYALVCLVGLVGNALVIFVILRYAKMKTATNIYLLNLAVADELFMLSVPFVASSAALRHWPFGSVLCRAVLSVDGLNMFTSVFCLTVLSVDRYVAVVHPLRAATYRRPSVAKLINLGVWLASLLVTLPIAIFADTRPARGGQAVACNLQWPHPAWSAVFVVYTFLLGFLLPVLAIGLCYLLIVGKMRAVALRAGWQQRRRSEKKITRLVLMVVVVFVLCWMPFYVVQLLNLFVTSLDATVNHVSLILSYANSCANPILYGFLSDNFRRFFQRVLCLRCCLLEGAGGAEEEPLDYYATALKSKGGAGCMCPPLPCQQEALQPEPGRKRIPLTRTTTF
Sequence of Somatostatin receptor type 5 (P35346 whole entry): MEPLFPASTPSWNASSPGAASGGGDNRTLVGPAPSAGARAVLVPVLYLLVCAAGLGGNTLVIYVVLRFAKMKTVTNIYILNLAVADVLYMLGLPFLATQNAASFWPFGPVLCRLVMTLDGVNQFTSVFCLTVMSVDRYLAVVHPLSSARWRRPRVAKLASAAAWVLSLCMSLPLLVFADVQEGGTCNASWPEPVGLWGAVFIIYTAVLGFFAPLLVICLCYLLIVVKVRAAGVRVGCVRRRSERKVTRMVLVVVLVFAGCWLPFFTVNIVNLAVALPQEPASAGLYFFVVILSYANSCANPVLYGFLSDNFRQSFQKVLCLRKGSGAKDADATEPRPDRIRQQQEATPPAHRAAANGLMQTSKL

Row | SMILES | IC50 [1] [µM] | IC50 [2] [µM] | IC50 [3] [µM] | IC50 [4] [µM] | IC50 [5] [µM]
1 | C[C@@H](O)[C@@H]1NC(=O)[C@@H](N(C)C(=O)CCN)NC(=O)[C@@H](Cc2c[nH]c3ccccc23)NC(=O)[C@H](Cc2ccccc2)NC(=O)[C@H](Cc2ccccc2)NC(=O)[C@@H](N)CSSC[C@@H](C(=O)O)NC(=O)[C@H](Cc2ccccc2)NC1=O | > 10 | > 1 | > 10 | 0.429 | > 1
2 | C[C@@H](O)[C@@H]1NC(=O)[C@H](CCCCN)NC(=O)[C@@H](Cc2c[nH]c3ccccc23)NC(=O)[C@H](Cc2ccccc2)NC(=O)[C@H](Cc2ccccc2)NC(=O)[C@@H](N)CSSC[C@@H](C(=O)O)NC(=O)[C@@H](N(C)C(=O)c2ccccc2)NC1=O | > 1 | > 1 | > 10 | 0.08 | > 1
3 | COC(=O)[C@H](CCCN=C(N)N)NC(=O)CCCc1c(-c2ccccc2)[nH]c2c(F)cc(F)cc12 | > 1 | > 10 | > 1 |  | > 1
4 | C[C@@H](O)[C@@H]1NC(=O)[C@H](N(C)C(=O)CCN)NC(=O)[C@@H](Cc2c[nH]c3ccccc23)NC(=O)[C@H](Cc2ccccc2)NC(=O)[C@H](Cc2ccccc2)NC(=O)[C@@H](N)CSSC[C@@H](C(=O)O)NC(=O)[C@H](Cc2ccccc2)NC1=O | > 1 | > 1 | > 1 | > 1 | > 1
5 | C[C@@H](O)[C@@H]1NC(=O)[C@H](CCCCN)NC(=O)[C@H](Cc2c[nH]c3ccccc23)NC(=O)[C@H](Cc2ccccc2)NC(=O)[C@H](Cc2ccccc2)NC(=O)[C@@H](N)CSSC[C@@H](C(=O)O)NC(=O)[C@H](Cc2ccccc2)NC1=O (H-CFFWKTFC-OH; disulfide 1-8) | 0.041 | 0.046 | 0.027 | 0.0018 | 
6 | C[C@@H](O)[C@@H]1NC(=O)[C@H](CCCCN)NC(=O)[C@@H](Cc2c[nH]c3ccccc23)NC(=O)[C@H](Cc2ccccc2)NC(=O)[C@H](Cc2ccccc2)NC(=O)[C@@H](N)CSSC[C@@H](C(=O)O)NC(=O)[C@H](Cc2ccccc2)NC1=O (H-CFF[dW]KTFC-OH; disulfide 1-8) | 0.13 | 0.014 | 0.0053 | 0.0007 | 
7 | C[C@@H](O)[C@@H]1NC(=O)[C@H](CCCCN)NC(=O)[C@@H](Cc2c[nH]c3ccccc23)NC(=O)[C@H](Cc2ccccc2)NC(=O)[C@H](N(C)C(=O)c2ccccc2)NC(=O)[C@@H](N)CSSC[C@@H](C(=O)O)NC(=O)[C@H](Cc2ccccc2)NC1=O (stereo in doubt; 5) | > 1 |  | > 10 | > 1 | 
8 | C[C@@H](O)[C@@H]1NC(=O)[C@H](CCCCN)NC(=O)[C@@H](Cc2c[nH]c3ccccc23)NC(=O)[C@H](N(C)C(=O)c2ccccc2)NC(=O)[C@H](Cc2ccccc2)NC(=O)[C@H](N)CSSC[C@@H](C(=O)O)NC(=O)[C@H](Cc2ccccc2)NC1=O (stereo in doubt; 7) | > 1 | > 1 | > 10 | 0.133 | 0.725
9 | C[C@@H](O)[C@@H]1NC(=O)[C@H](CCCCN)NC(=O)[C@@H](Cc2c[nH]c3ccccc23)NC(=O)[C@H](N(C)C(=O)c2ccccc2)NC(=O)[C@H](Cc2ccccc2)NC(=O)[C@H](N)CSSC[C@@H](C(=O)O)NC(=O)[C@H](Cc2ccccc2)NC1=O (stereo in doubt; 9) |  |  |  | 0.153 | > 1
10 | C[C@@H](O)[C@@H]1NC(=O)[C@H](CCCCN)NC(=O)[C@@H](Cc2c[nH]c3ccccc23)NC(=O)[C@H](N(C)C(=O)c2ccccc2)NC(=O)[C@H](Cc2ccccc2)NC(=O)[C@H](N)CSSC[C@@H](C(=O)O)NC(=O)[C@H](Cc2ccccc2)NC1=O (stereo in doubt; 11) |  |  |  | 0.031 | 0.136
11 | C[C@@H](O)[C@@H]1NC(=O)[C@@H](NC(=O)CCN)NC(=O)[C@@H](Cc2c[nH]c3ccccc23)NC(=O)[C@H](Cc2ccccc2)NC(=O)[C@H](Cc2ccccc2)NC(=O)[C@@H](N)CSSC[C@@H](C(=O)O)NC(=O)[C@H](Cc2ccccc2)NC1=O (stereo in doubt; 16) | > 1 | > 10 | > 10 | > 10 | > 1
12 | C[C@@H](O)[C@@H]1NC(=O)[C@@H](NC(=O)CCN)NC(=O)[C@@H](Cc2c[nH]c3ccccc23)NC(=O)[C@H](Cc2ccccc2)NC(=O)[C@H](Cc2ccccc2)NC(=O)[C@@H](N)CSSC[C@@H](C(=O)O)NC(=O)[C@H](Cc2ccccc2)NC1=O (stereo in doubt; 17) | > 1 | > 10 | > 10 | > 1 | > 1
13 | CN(C(=O)CO)[C@H]1NC(=O)[C@H](CCCCN)NC(=O)[C@@H](Cc2c[nH]c3ccccc23)NC(=O)[C@H](Cc2ccccc2)NC(=O)[C@H](Cc2ccccc2)NC(=O)[C@@H](N)CSSC[C@@H](C(=O)O)NC(=O)[C@H](Cc2ccccc2)NC1=O (stereo in doubt; 21) | > 1 | 0.389 | 0.86 | 0.038 | > 1

Results, then the molecule that gave them:

Row | IC50 [1] [µM] | IC50 [2] [µM] | IC50 [3] [µM] | IC50 [4] [µM] | IC50 [5] [µM] | SMILES
14 | 0.455 | 0.22 | > 10 | 0.0069 | 0.235 | C[C@@H](O)[C@@H]1NC(=O)[C@H](CCCCN)NC(=O)[C@@H](Cc2c[nH]c3ccccc23)NC(=O)[C@H](Cc2ccccc2)NC(=O)[C@H](Cc2ccccc2)NC(=O)[C@@H](N)CSSC[C@@H](C(=O)O)NC(=O)[C@H](N(C)C(=O)c2ccccc2)NC1=O
15 | > 1 | > 1 | > 10 | 0.0054 | 0.403 | C[C@@H](O)[C@@H]1NC(=O)[C@H](CCCCN)NC(=O)[C@H](Cc2c[nH]c3ccccc23)NC(=O)[C@H](N(C)C(=O)c2ccccc2)NC(=O)[C@H](Cc2ccccc2)NC(=O)[C@@H](N)CSSC[C@@H](C(=O)O)NC(=O)[C@H](Cc2ccccc2)NC1=O
16 | 0.374 | > 1 | 0.667 | 0.014 | > 10 | C[C@@H](O)[C@@H]1NC(=O)[C@H](CCCCN)NC(=O)[C@@H](Cc2c[nH]c3ccccc23)NC(=O)[C@H](Cc2ccccc2)NC(=O)[C@H](N(C)C(=O)c2ccccc2)NC(=O)[C@@H](N)CSSC[C@@H](C(=O)O)NC(=O)[C@H](Cc2ccccc2)NC1=O (stereo in doubt; 4)
17 | 0.46 | 0.768 |  | 0.0052 | 0.447 | C[C@@H](O)[C@@H]1NC(=O)[C@H](CCCCN)NC(=O)[C@@H](Cc2c[nH]c3ccccc23)NC(=O)[C@H](N(C)C(=O)c2ccccc2)NC(=O)[C@H](Cc2ccccc2)NC(=O)[C@H](N)CSSC[C@@H](C(=O)O)NC(=O)[C@H](Cc2ccccc2)NC1=O (stereo in doubt; 8)
18 | 0.533 | 0.46 | > 1 | 0.0034 | 0.382 | C[C@@H](O)[C@@H]1NC(=O)[C@H](CCCCN)NC(=O)[C@@H](Cc2c[nH]c3ccccc23)NC(=O)[C@H](N(C)C(=O)c2ccccc2)NC(=O)[C@H](Cc2ccccc2)NC(=O)[C@H](N)CSSC[C@@H](C(=O)O)NC(=O)[C@H](Cc2ccccc2)NC1=O (stereo in doubt; 10)
19 | > 1 | 0.211 | 0.045 | 0.0065 | > 1 | CN(C(=O)CO)[C@H]1NC(=O)[C@H](CCCCN)NC(=O)[C@@H](Cc2c[nH]c3ccccc23)NC(=O)[C@H](Cc2ccccc2)NC(=O)[C@H](Cc2ccccc2)NC(=O)[C@@H](N)CSSC[C@@H](C(=O)O)NC(=O)[C@H](Cc2ccccc2)NC1=O (stereo in doubt; 20)
